Experimental data: paper PMC6211260 (Journal of Enzyme Inhibition and Medicinal Chemistry, 2018)

What was measured:
Assay type in all cases: cell-based
[1] = system: breast cancer cell lines; assay: NCI five-dose testing, subpanel mean; conditions: subpanel IX: breast cancer
Description: (§1) Screening against the cancer cell lines was carried out at the National Cancer Institute (NCI, Bethesda, Maryland, USA) applying the standard protocol of the NCI[22].

[2] = system: ovarian cancer cell lines; assay: NCI five-dose testing, subpanel mean; conditions: subpanel VI: ovarian cancer
Description: as §1

[3] = system: non-small cell lung cancer cell lines; assay: NCI five-dose testing, subpanel mean; conditions: subpanel II: non-small cell lung cancer
Description: as §1

[4] = system: CNS cancer cell lines; assay: NCI five-dose testing, subpanel mean; conditions: subpanel IV: CNS cancer
Description: as §1

[5] = system: prostate cancer cell lines; assay: NCI five-dose testing, subpanel mean; conditions: subpanel VIII: prostate cancer
Description: as §1

[6] = system: Leukaemia cell lines; assay: NCI five-dose testing, subpanel mean; conditions: subpanel I: Leukaemia
Description: as §1

[7] = system: renal cancer cell lines; assay: NCI five-dose testing, subpanel mean; conditions: subpanel VII: renal cancer
Description: as §1

[8] = system: colon cancer cell lines; assay: NCI five-dose testing, subpanel mean; conditions: subpanel III: colon cancer
Description: as §1

[9] = system: melanoma cell lines; assay: NCI five-dose testing, subpanel mean; conditions: subpanel V: melanoma
Description: as §1

[10] = system: Colo 205 colon cancer cell line; assay: NCI-60 single-dose screening; conditions: 10 µM
Description: as §1
(§2) The final target compounds were submitted to the National Cancer Institute (NCI), Maryland, USA[23]. Thirty-one compounds were selected to be tested over 60 cell lines at single dose 10 µM.

[11] = system: HT29 colon cancer cell line; assay: NCI-60 single-dose screening; conditions: 10 µM
Description: as §1, §2

[12] = system: SK-MEL-5 melanoma cell line; assay: NCI-60 single-dose screening; conditions: 10 µM
Description: as §1, §2

[13] = system: OVCAR-4 ovarian cancer cell line; assay: NCI five-dose testing; conditions: Homo sapiens
Description: as §1

[14] = system: K-562 leukaemia cell line; assay: NCI five-dose testing; conditions: Homo sapiens
Description: as §1

[15] = system: U251 CNS cancer cell line; assay: NCI five-dose testing; conditions: Homo sapiens
Description: as §1

[16] = system: HT-29 colon cancer cell line; assay: NCI five-dose testing; conditions: Homo sapiens
Description: as §1

[17] = system: A498 renal cancer cell line; assay: NCI five-dose testing; conditions: Homo sapiens
Description: as §1

[18] = system: HOP-92 non-small cell lung cancer cell line; assay: NCI five-dose testing; conditions: Homo sapiens
Description: as §1

[19] = system: PC-3 prostate cancer cell line; assay: NCI five-dose testing; conditions: Homo sapiens
Description: as §1

[20] = system: MDA-MB-468 breast cancer cell line; assay: NCI five-dose testing; conditions: Homo sapiens
Description: as §1

[21] = system: SK-MEL-5 melanoma cell line; assay: NCI five-dose testing; conditions: Homo sapiens
Description: as §1

[22] = system: NCI-60 cell line panel; assay: NCI-60 single-dose (10 µM) antiproliferative screening, mean over panel; conditions: single-dose 10 µM
Description: as §1, §2

COc1cccc(-c2nn(-c3ccccc3)cc2-c2ccnc(NCCCNS(=O)(=O)c3ccc(C(F)(F)F)cc3)c2)c1 [Compound 2g, N-(3-((4-(3-(3-Methoxyphenyl)-1-phenyl-1H-pyrazol-4-yl)pyridin-2-yl)amino)propyl)-4-(trifluoromethyl)benzenesulfonamide]
IC50 [1]: 4.05 µM
IC50 [2]: 6.1 µM
IC50 [3]: 6.36 µM
IC50 [4]: 5.28 µM
IC50 [5]: 13 µM
IC50 [6]: 3.35 µM
IC50 [7]: 5.32 µM
IC50 [8]: 4.91 µM
IC50 [9]: 4.94 µM
per cent inhibition [10]: lethal effect
per cent inhibition [11]: lethal effect
per cent inhibition [12]: lethal effect
IC50 ([13]; OVCAR-4): 4.36 µM
LC50 (lethal concentration 50) ([13]; OVCAR-4, read-out: LD50 (lethal dose 50)): > 100 µM
IC (TGI) ([13]; OVCAR-4, read-out: TGI (total growth inhibition concentration)): > 100 µM
CC50 ([14]; K562, read-out: LD50 (lethal dose 50)): > 100 µM
IC50 ([14]; K562, K-562): 3.06 µM
IC (TGI) ([14]; K562, K-562, read-out: TGI (total growth inhibition concentration)): > 100 µM
CC50 ([15]; U-251, read-out: LD50 (lethal dose 50)): > 100 µM
IC50 ([15]; U-251, U251, read-out: IC50): 5.63 µM
IC (TGI) ([15]; U-251, U251, read-out: TGI (total growth inhibition concentration)): > 100 µM
CC50 ([16]; HT-29, read-out: LD50 (lethal dose 50)): > 100 µM
IC50 ([16]; HT-29, read-out: IC50): 3.21 µM
IC (TGI) ([16]; HT-29, read-out: TGI (total growth inhibition concentration)): 10 µM
IC50 ([17]; A498): 3.8 µM
LC50 (lethal concentration 50%) ([17]; A498, read-out: LD50 (lethal dose 50)): > 100 µM
IC (TGI) ([17]; A498, read-out: TGI (total growth inhibition concentration)): > 100 µM
IC50 ([18]; HOP-92): 3.68 µM
IC (TGI) ([18]; HOP-92, HOP-92, read-out: TGI (total growth inhibition concentration)): > 100 µM
LD50 (lethal dose 50) ([18]; HOP-92, read-out: LD50 (lethal dose 50)): > 100 µM
LC50 (lethal concentration 50) ([19]; PC-3, read-out: LD50 (lethal dose 50)): > 100 µM
IC50 ([19]; PC-3, read-out: IC50): 3.36 µM
IC (TGI) ([19]; PC-3, read-out: TGI (total growth inhibition concentration)): > 100 µM
IC50 ([20]; MDA-MB-468): 3.11 µM
CC50 ([20]; MDA-MB-468, read-out: LD50 (lethal dose 50)): > 100 µM
IC (TGI) ([20]; MDA-MB-468, read-out: TGI (total growth inhibition concentration)): > 100 µM
IC50 ([21]; SK-MEL-5): 2180 nM
LC50 (lethal concentration 50) ([21]; SK-MEL-5, read-out: LD50 (lethal dose 50)): 23.1 µM
IC (TGI) ([21]; SK-MEL-5, read-out: TGI (total growth inhibition concentration)): 5 µM
inhibition at 10 µM ([22]; 60-cancer cell line screening): 76.5%
number of cell lines with more than 100% inhibition ([22]; NCI-60 panel): 13
